Assay type in all cases: functional
Assay [1] deals with Klebsiella pneumoniae. Nature of the assay: Antibacterial activity against Klebsiella pneumoniae at 50 ug/well after 24 hrs by agar well diffusion method. The settings on record: for zone of inhibition at 50 µg/disc: read-out: DIZ. For orientation: A growth-free zone around the sample is the usual read-out of agar diffusion tests.
The subject of assay [2] is Aspergillus niger. Nature of the assay: Antifungal activity against Aspergillus niger at 50 ug/well after 48 hrs by agar well diffusion method. As to conditions: read-out: DIZ.
Assay [3] has as its system Penicillium chrysogenum. Nature of the assay: Antifungal activity against Penicillium chrysogenum at 50 ug/well after 48 hrs by agar well diffusion method. The settings on record: read-out: DIZ.
Assay [4] concerns Klebsiella pneumoniae. Description: Antibacterial activity against Klebsiella pneumoniae at 100 ug/well after 24 hrs by agar well diffusion method. As to conditions: for zone of inhibition at 100 µg/disc: read-out: DIZ.
Assay [5] concerns Penicillium chrysogenum. Description: Antifungal activity against Penicillium chrysogenum at 100 ug/well after 48 hrs by agar well diffusion method. As to conditions: read-out: DIZ.
Assay [6] relates to Aspergillus niger. Description: Antifungal activity against Aspergillus niger at 100 ug/well after 48 hrs by agar well diffusion method. The settings on record: read-out: DIZ.
For assay [7], the system named is Pseudomonas aeruginosa. Nature of the assay: Antibacterial activity against Pseudomonas aeruginosa at 50 ug/well after 24 hrs by agar well diffusion method. The settings on record: for zone of inhibition at 50 µg/disc: read-out: DIZ.
Assay [8] relates to Bacillus subtilis. Description: Antibacterial activity against Bacillus subtilis at 100 ug/well after 24 hrs by agar well diffusion method. As to conditions: for zone of inhibition at 100 µg/disc: read-out: DIZ.
Assay [9] has as its system Bacillus subtilis. Nature of the assay: Antibacterial activity against Bacillus subtilis at 50 ug/well after 24 hrs by agar well diffusion method. The settings on record: for zone of inhibition at 50 µg/disc: read-out: DIZ.
In assay [10] the test system is Staphylococcus aureus. Description: Antibacterial activity against Staphylococcus aureus at 50 ug/well after 24 hrs by agar well diffusion method. As to conditions: for zone of inhibition at 50 µg/disc: read-out: DIZ.
In assay [11] the test system is Pseudomonas aeruginosa. Description: Antibacterial activity against Pseudomonas aeruginosa at 100 ug/well after 24 hrs by agar well diffusion method. The settings on record: for zone of inhibition at 100 µg/disc: read-out: DIZ.
Assay [12] relates to Staphylococcus aureus. Description: Antibacterial activity against Staphylococcus aureus at 100 ug/well after 24 hrs by agar well diffusion method. The settings on record: for zone of inhibition at 100 µg/disc: read-out: DIZ.

The source made the active and inactive calls. No cut-off for these calls is given here.

`O=S(=O)(c1ccccc1)C1C(c2ccc(Cl)cc2)=NOC1c1ccc(C2ON=C(c3ccc(Cl)cc3)C2S(=O)(=O)c2ccccc2)cc1` (stereo not drawn): the zone of inhibition at 50 µg/disc in the assay on Klebsiella pneumoniae [1] worked out at 11 mm; with Aspergillus niger [2] it was 15 mm; with Penicillium chrysogenum [3], 20 mm; in the assay with Pseudomonas aeruginosa [7], 10 mm; in the assay on Bacillus subtilis [9], 18 mm; in the assay with Staphylococcus aureus [10], 14 mm. The zone of inhibition at 100 µg/disc with Klebsiella pneumoniae [4] turned out to be 13 mm; in the assay with Penicillium chrysogenum [5], 22 mm; in the assay with Aspergillus niger [6], 17 mm; in the assay with Bacillus subtilis [8], 20 mm; in the assay on Pseudomonas aeruginosa [11] it was 12 mm; with Staphylococcus aureus [12], 16 mm.

As to `COc1ccc(C2=NOC(c3ccc(C4ON=C(c5ccc(OC)cc5)C4S(=O)(=O)c4ccc(Cl)cc4)cc3)C2S(=O)(=O)c2ccc(Cl)cc2)cc1` (stereo not drawn), the zone of inhibition at 50 µg/disc turned out to be 9 mm in the assay on Klebsiella pneumoniae [1]; 14 mm in the assay with Aspergillus niger [2]; 16 mm in the assay on Penicillium chrysogenum [3]; 13 mm in the assay on Bacillus subtilis [9]; 9 mm in the assay on Staphylococcus aureus [10]. Further, the zone of inhibition at 100 µg/disc with Klebsiella pneumoniae [4] was 11 mm; in the assay on Penicillium chrysogenum [5], 19 mm; in the assay on Aspergillus niger [6] it was 16 mm; in the assay on Bacillus subtilis [8], 15 mm; with Staphylococcus aureus [12], 12 mm. Further, the “diameter of the inhibition zone (DIZ)” value in the assay with Pseudomonas aeruginosa [7] and with Pseudomonas aeruginosa [11] was “inactive” in each case.

On to `Cc1ccc(S(=O)(=O)C2C(c3ccc(Cl)cc3)=NOC2c2ccc(C3ON=C(c4ccc(Cl)cc4)C3S(=O)(=O)c3ccc(C)cc3)cc2)cc1` (stereo not drawn), for which the zone of inhibition at 50 µg/disc was 10 mm with Klebsiella pneumoniae [1]; 15 mm in the assay on Aspergillus niger [2]; 17 mm in the assay on Penicillium chrysogenum [3]; 16 mm in the assay on Bacillus subtilis [9]; 12 mm in the assay on Staphylococcus aureus [10]. Also, the zone of inhibition at 100 µg/disc in the assay with Klebsiella pneumoniae [4] was 12 mm; with Penicillium chrysogenum [5], 21 mm; in the assay on Aspergillus niger [6] it was 17 mm; in the assay with Bacillus subtilis [8] it was 18 mm; in the assay on Staphylococcus aureus [12], 15 mm. The “diameter of the inhibition zone (DIZ)” value in the assay on Pseudomonas aeruginosa [7] and in the assay with Pseudomonas aeruginosa [11] was “inactive” each time.

Consider `COc1ccc(-c2nn(-c3ccccc3)c(-c3ccc(-c4c(S(=O)(=O)c5ccccc5)c(-c5ccc(OC)cc5)nn4-c4ccccc4)cc3)c2S(=O)(=O)c2ccccc2)cc1`, for which the zone of inhibition at 50 µg/disc with Klebsiella pneumoniae [1] stood at 15 mm; in the assay on Aspergillus niger [2], 20 mm; in the assay on Penicillium chrysogenum [3], 23 mm; with Pseudomonas aeruginosa [7], 12 mm; with Bacillus subtilis [9], 20 mm; in the assay with Staphylococcus aureus [10], 17 mm. Further, the zone of inhibition at 100 µg/disc with Klebsiella pneumoniae [4] turned out to be 16 mm; in the assay on Penicillium chrysogenum [5], 25 mm; with Aspergillus niger [6], 22 mm; in the assay on Bacillus subtilis [8], 24 mm; in the assay on Pseudomonas aeruginosa [11] it was 14 mm; in the assay on Staphylococcus aureus [12], 19 mm.

For the compound `COc1ccc(C2=NN(c3ccccc3)C(c3ccc(C4C(S(=O)(=O)c5ccc(C)cc5)C(c5ccc(OC)cc5)=NN4c4ccccc4)cc3)C2S(=O)(=O)c2ccc(C)cc2)cc1` (stereo not drawn), the “diameter of the inhibition zone (DIZ)” value in the assay on Klebsiella pneumoniae [1], with Klebsiella pneumoniae [4], in the assay with Pseudomonas aeruginosa [7], in the assay on Bacillus subtilis [8], in the assay with Bacillus subtilis [9] and in the assay on Staphylococcus aureus [10] was “inactive” each time. The “diameter of the inhibition zone (DIZ)” value in the assay with Pseudomonas aeruginosa [11] and in the assay with Staphylococcus aureus [12] was “inactive” each time. The zone of inhibition at 50 µg/disc with Aspergillus niger [2] was 8 mm; in the assay on Penicillium chrysogenum [3], 10 mm. The zone of inhibition at 100 µg/disc is 13 mm in the assay with Penicillium chrysogenum [5] and 9 mm in the assay on Aspergillus niger [6].

On to `COc1ccc(-c2nn(-c3ccccc3)c(-c3ccc(-c4c(S(=O)(=O)c5ccc(Cl)cc5)c(-c5ccc(OC)cc5)nn4-c4ccccc4)cc3)c2S(=O)(=O)c2ccc(Cl)cc2)cc1`, for which the zone of inhibition at 50 µg/disc was 15 mm with Klebsiella pneumoniae [1]; 25 mm with Aspergillus niger [2]; 24 mm in the assay with Penicillium chrysogenum [3]; 14 mm with Pseudomonas aeruginosa [7]; 23 mm in the assay with Bacillus subtilis [9]; 18 mm in the assay on Staphylococcus aureus [10]. The zone of inhibition at 100 µg/disc is 17 mm with Klebsiella pneumoniae [4]; 26 mm with Penicillium chrysogenum [5]; 27 mm in the assay on Aspergillus niger [6]; 25 mm with Bacillus subtilis [8]; 16 mm in the assay on Pseudomonas aeruginosa [11]; 20 mm in the assay on Staphylococcus aureus [12].

Consider `COc1ccc(C2=NN(c3ccccc3)C(c3ccc(C4C(S(=O)(=O)c5ccc(Cl)cc5)C(c5ccc(OC)cc5)=NN4c4ccccc4)cc3)C2S(=O)(=O)c2ccc(Cl)cc2)cc1` (stereo not drawn), for which the “diameter of the inhibition zone (DIZ)” value in the assay on Klebsiella pneumoniae [1], with Klebsiella pneumoniae [4], in the assay on Pseudomonas aeruginosa [7], with Bacillus subtilis [8], in the assay with Bacillus subtilis [9] and in the assay on Staphylococcus aureus [10] was “inactive” in each case. The “diameter of the inhibition zone (DIZ)” value with Pseudomonas aeruginosa [11] and in the assay with Staphylococcus aureus [12] was “inactive” throughout. In addition, the zone of inhibition at 50 µg/disc in the assay on Aspergillus niger [2] amounted to 10 mm; in the assay with Penicillium chrysogenum [3], 15 mm. Besides, the zone of inhibition at 100 µg/disc came to 17 mm in the assay with Penicillium chrysogenum [5] and 11 mm with Aspergillus niger [6].

`COc1ccc(C2=NOC(c3ccc(C4ON=C(c5ccc(OC)cc5)C4S(=O)(=O)c4ccc(C)cc4)cc3)C2S(=O)(=O)c2ccc(C)cc2)cc1` (stereo not drawn): the “diameter of the inhibition zone (DIZ)” value in the assay on Klebsiella pneumoniae [1], in the assay with Klebsiella pneumoniae [4], in the assay on Pseudomonas aeruginosa [7], in the assay on Bacillus subtilis [8], in the assay with Bacillus subtilis [9] and in the assay on Staphylococcus aureus [10] was “inactive” each time. The “diameter of the inhibition zone (DIZ)” value in the assay on Pseudomonas aeruginosa [11] and in the assay on Staphylococcus aureus [12] was “inactive” in each case. Moreover, the zone of inhibition at 50 µg/disc with Aspergillus niger [2] was 16 mm; in the assay with Penicillium chrysogenum [3] it was 15 mm. For the same compound, the zone of inhibition at 100 µg/disc turned out to be 18 mm in the assay on Penicillium chrysogenum [5] and 19 mm in the assay with Aspergillus niger [6].

With `COc1ccc(-c2noc(-c3ccc(-c4onc(-c5ccc(OC)cc5)c4S(=O)(=O)c4ccccc4)cc3)c2S(=O)(=O)c2ccccc2)cc1`, the zone of inhibition at 50 µg/disc in the assay with Klebsiella pneumoniae [1] turned out to be 18 mm; in the assay on Aspergillus niger [2], 27 mm; in the assay on Penicillium chrysogenum [3], 26 mm; in the assay with Pseudomonas aeruginosa [7] it was 16 mm; with Bacillus subtilis [9], 26 mm; with Staphylococcus aureus [10], 20 mm. Besides, the zone of inhibition at 100 µg/disc turned out to be 21 mm in the assay with Klebsiella pneumoniae [4]; 29 mm in the assay with Penicillium chrysogenum [5]; 30 mm with Aspergillus niger [6]; 28 mm in the assay with Bacillus subtilis [8]; 18 mm in the assay on Pseudomonas aeruginosa [11]; 23 mm with Staphylococcus aureus [12].

These data come from ChEMBL document CHEMBL3112509, “Synthesis and antimicrobial activity of (1,4-phenylene)bis(arylsulfonylpyrazoles and isoxazoles)” (2014).
